How the values were obtained:
[1] = target: T1, purified human topoisomerase I (Homo sapiens, UniProt P11387); assay: Topoisomerase I-mediated single strand DNA break induction (in vitro); type: biochemical; settings: median effect concentration for inducing single-strand breaks in the DNA substrate; read-out: Topo I EC50
T1 construct: purchased Topogen
T1 sequence (P11387 1-765): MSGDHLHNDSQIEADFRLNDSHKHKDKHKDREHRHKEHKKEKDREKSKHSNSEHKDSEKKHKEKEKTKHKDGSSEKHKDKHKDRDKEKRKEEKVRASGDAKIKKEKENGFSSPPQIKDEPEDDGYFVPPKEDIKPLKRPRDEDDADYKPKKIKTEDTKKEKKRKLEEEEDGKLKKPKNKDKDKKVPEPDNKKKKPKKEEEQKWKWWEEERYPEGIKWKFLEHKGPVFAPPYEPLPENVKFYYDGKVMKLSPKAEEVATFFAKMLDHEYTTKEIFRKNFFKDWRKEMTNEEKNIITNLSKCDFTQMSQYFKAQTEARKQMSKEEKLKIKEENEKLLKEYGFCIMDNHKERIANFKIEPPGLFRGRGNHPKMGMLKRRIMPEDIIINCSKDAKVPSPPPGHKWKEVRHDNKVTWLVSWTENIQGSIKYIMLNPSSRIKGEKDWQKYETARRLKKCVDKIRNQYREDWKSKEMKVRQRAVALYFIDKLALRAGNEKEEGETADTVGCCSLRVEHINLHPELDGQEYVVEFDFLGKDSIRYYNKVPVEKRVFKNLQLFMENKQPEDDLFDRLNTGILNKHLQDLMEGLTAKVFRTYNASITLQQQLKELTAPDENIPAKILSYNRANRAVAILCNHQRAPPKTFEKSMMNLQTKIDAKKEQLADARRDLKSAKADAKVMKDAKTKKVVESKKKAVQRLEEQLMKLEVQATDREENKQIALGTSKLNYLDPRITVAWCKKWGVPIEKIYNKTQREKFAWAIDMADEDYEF
Experimental: Topoisomerase I activity was measured as described below. The procedure for assaying compound-induced, topoisomerase I-mediated single strand breaks in DNA was essentially that described by Hsiang, et al., (J. Biol. Chem. 1985, 260, 14873-14878). Samples dissolved in 100% DMSO as either […] or 10 mg/ml solutions, unless otherwise stated, were diluted in Tris-EDTA buffer. Marine bacteriophage PM2 DNA (Boehringer Mannheim) was also diluted in Tris-EDTA buffer to a concentration of 0.02 μg/μl. Different dilutions of the compound being evaluated were mixed with diluted DNA and this mixture was added to […] (one unit of enzyme activity is defined as the amount capable of relaxing 100 ng of supercoiled DNA in approximately 30 minutes at 37° C.) aliquots of purified human topoisomerase I (Topogen) in 2X reaction buffer to start the reaction. The compound-DNA-enzyme mixture was incubated for 30 minutes at 37° C. before stopping the reaction with warm stop buffer containing sodium dodecyl sulfate and proteinase K (Sigma). These mixtures were allowed to incubate at 37° C. for another 10 minutes, at which time the mixtures were removed from the waterbath and extracted with a 24:1 mixture of chloroform/isoamyl alcohol. Following centrifugation, aliquots of the aqueous phases were placed in wells of a 0.9% agarose (SeaKem) gel in Tris-borate buffer containing 0.5 μg/ml of ethidium bromide and subjected to electrophoresis for 15 hours to separate the different topological isomers and nicked and broken DNAs. After destaining the gel in water, the ethidium bromide stained DNA reaction products were visualized by exposing the gel to UV irradiation. Negatives of the photographs of the irradiated gels were scanned with a densitometer and areas under the peaks were calculated in order to obtain percent single strand DNA break formation for each sample. A median effective concentration (EC50) was obtained for each compound by interpolation between points of the resulting dose-effect curve which defines the potency of the compound for its effect in inducing topoisomerase I-mediated single strand breaks in DNA. The topoisomerase I activities for certain compounds of the present invention are shown below in Table I.

[2] = test system: HT-29 colon carcinoma; assay: In vivo antitumor activity, HT-29 xenograft; parameters: species or system Balb/c athymic (nude) female mice
Experimental: Compounds: Examples of this invention were administered in an appropriate vehicle such as cremophor/ethanol/water (10%/10%/80%), in normal saline, water/carboxymethylcellulose vehicle.
All compounds were tested at several dose levels, with attempts each time to achieve their maximum tolerated dose (MTD). […] The optimal dose (OD) was the dose producing the best therapeutic effect, and was usually, but not always, synonymous with the MTD.
Tumors: Human tumors (HCT-116 and HT-29 colon carcinomas) were grown as xenografts in Balb/c athymic (nude) female mice. Antitumor assays. All tumors were implanted subcutaneously (sc) as 3-4mm fragments using a 13 gauge trochar. There were generally eight mice per treatment and control group. When treatment was delayed until tumors had obtained a certain size (weight), referred to as a staged tumor experiment (expt.), tumor-bearing mice were selected so that their tumors fell within a limited range of sizes for the particular expt.
Tumors were measured by calipers, and tumor weight calculated by the formula length (mm) times (×) width (mm)^2/2=tumor weight (mg). The median time (in days) to reach a predetermined tumor target size (for example, 500 mg) for untreated, control (C) mice relative to the time to reach the same target size for treated (T) mice, was calculated as a T-C value. T-C values were divided by the tumor volume doubling time (TVDT), and multiplied by 3.32, to yield a gross log cell kill (LCK) value, [i.e., (T-C)/TVDT×3.32=LCK].
A mouse was considered cured if there was no palpable tumor after a period of time equal to 10×TVDT post-reatment (Rx).

[3] = test system: P388/CPT45 cells; assay: Cytotoxicity in camptothecin-resistant P388/CPT45 cells relative to parental P388 (selectivity index R/S); type: cell-based, murine; settings: IC50 P388/CPT45 cells divided by IC50 parental P388 cells
From the text: The present invention includes fluoro sugar and other sugar derivatives of indolopyrrolocarbazoles of formula (I), as defined above. […] Most importantly, the instant invention describes topo I active compounds, related to compounds disclosed in WO 98/07433 and co-pending U.S. application, Ser. No. 08/914566 (both herein incorporated by reference), which display a surprising and unexpected selectivity index when evaluated for cytotoxicity in certain cell lines which express normal levels of topo I required for cell proliferation, compared with cell lines that are deficient in or underexpress topo I. Said “selectivity index” (R/S) was generated by dividing the cytotoxic IC50 of a particular compound against a camptothecin-resistant murine leukemia cell line, P388/CPT45, by the IC50 generated when using the parent P388 cell line. […] A level of selectivity was judged to be advantageous and beneficial in, for example, modulating potential undesirable side effects and/or toxicity. The compounds of the present invention were selected from compounds generically disclosed in WO 98/07433 and co-pending U.S. patent application, Ser. No. 08/914566, on the basis of an unexpected and unpredictable selectivity index (see Table I and II). […] Simple changes in the substitution of the sugar portion or the indolopyrrolocarbazole portion of the present invention will change the selectivity. This change in selectivity is not predictable by one skilled in the art.
(§1) Similarly, P338 murine leukemia cells were maintained in RPMI 1640 supplemented with 20% fetal bovine serum and 10 μM 2-mercaptoethanol. A camptothecin resistant subline, P388/CPT45, was selected for resistance to camptothecin and is over 1000-fold resistant to this compound (Woessner, et al. Oncol. Res. 1992, 4, 481-488).
(§2) In vitro cytotoxicity was assessed in tissue culture cells by MTS (3-(4,5-dimethylthiazol-2-yl)-5-(3-carboxymethoxyphenyl)-2-(4-sulphenyl)-2H-tetrazolium, inner salt) assay (Riss and Moravec, Mol. Biol. Cell 1992, 3 (Suppl.), 184a). Cells were plated at 8,000 cell/well in 96 well microtiter plates and 24 hours later serial dilutions of the test compounds were made and added to the cells. The cells were incubated at 37° C. for 72 hours, at which time the tetrazolium dye, MTS at 333 μg/ml (final concentration), in combination with the electron coupling agent phenazine methosulfate at 25 μM (final concentration) was added. A dehydrogenase enzyme in live cells reduces the MTS to a form that absorbs light at 492 nm which can be quantitated spectrophotometrically. The greater the absorbance the greater the number of live cells. The results are expressed as an IC50, which is the drug concentration required to inhibit cell proliferation (i.e., absorbance at 492 nm) to 50% of that of untreated control cells.
The selectivity index (R/S) is defined as the ratio obtained by dividing the IC50 value obtained using P388/CPT45 cells by that obtained using parental P388 cells. The R/S ratios used to determine the relative topo I selectivity of selected compounds of this invention are shown below in Table I.

[4] = test system: P388/CPT45 cells; settings: P388/CPT45 versus parental P388; cited from earlier work
[5] = test system: P388 murine leukemia cells; assay: In vitro cell-based cytotoxicity, parental P388 cells; settings: Mus musculus, 72 h, median cytotoxic concentration, 3 days continuous exposure
Experimental: The proliferation inhibition activity against the murine P388 cell line was measured as follows. Evaluation of a soluble tetrazolium/formazan assay for cell growth and drug sensitivity in culture, using human and other tumor cell lines, was done according to the procedure described in Cancer Res. 1988, 48, 4827-4833. Cells were plated at 4000 cells/well in 96 well microtiter plates and 24 h later drugs were added and serially diluted. The cells were incubated at 37° C. for 72 h, at which time a tetrazolium dye, XTT, containing phenazine methosulfate was added. A dehydrogenase enzyme in live cells reduced the XTT to a form that absorbs light at 450 nm, which could be quantitated spectrophotometrically. The greater the absorbance the greater the number of live cells. The results are expressed as an IC50, which is the drug concentration required to inhibit cell proliferation (i.e., absorbance at 450 nm) to 50% of that of untreated control cells.
as §1, §2
The cytotoxic activity for certain compounds of the present invention, in both parental P388 and the camptothecin-resistant P388/CPT45 cell lines are shown below in Table I.

Row | Structure (SMILES) | EC50 [1] [nM] | LCK (gross log cell kill) ([2]; HT29 sc xenograft in nude mice, at optimal or maximum tolerated dose, CPT-11 run as comparator in same experiment) | MTD (optimal or maximum tolerated dose level tested) ([2]; HT29 xenograft experiment, nude mice) [mpkpi] | Selectivity Index R/S [3] | fold resistance of P388/CPT45 subline [4] | IC50 [5] [nM]
1 | O=C1NC(=O)c2c1c1c3cc(F)c(F)cc3sc1c1c2c2cc(F)c(F)cc2n1[C@@H]1O[C@H](CO)C(F)(F)[C@H](O)[C@H]1O [Example 30, 12-[4,4-Difluoro-4-deoxy-β-D-glucopyranosyl]-2,3,9,10-tetrafluoro-5H, 13H-benzo[b]thienyl[2,3-a]pyrrolo[3,4c]carbazole-5,7(6H)-dione] | 10 | >1.4 | 16 | 575.5 | – | –
2 | CC[C@@]1(O)C(=O)OCc2c1cc1n(c2=O)Cc2cc3ccccc3nc2-1 [camptothecin] | – | – | – | – | over 1000 fold | –
3 | O=C1NC(=O)c2c1c1c3cc(F)c(F)cc3[nH]c1c1c2c2cc(F)c(F)cc2n1[C@@H]1O[C@H](CF)[C@@H](F)[C@H](O)[C@H]1O [Example 22, 12-[4,6-Difluoro-4,6-dideoxy-β-D-glucopyranosyl]-2,3,9,10-tetrafluoro-12,13-dihydro-5H-indolo[2,3-a]pyrrolo[3,4-c]carbazole-5,7(6H)-dione] | 80 | – | – | 287.7 | – | 14
4 | O=C1NC(=O)c2c1c1c3cc(F)ccc3sc1c1c2c2cc(F)ccc2n1[C@@H]1O[C@H](CN2CCOCC2)[C@@H](O)[C@H](O)[C@H]1O [Example 13] | 160 | – | – | 140.0 | – | 100
5 | O=C1NC(=O)c2c1c1c3cc(F)c(F)cc3[nH]c1c1c2c2cc(F)c(F)cc2n1[C@@H]1O[C@H](CO)C(F)(F)[C@H](O)[C@H]1O [Example 14] | 30 | – | – | 140.3 | – | 6
6 | O=C1NC(=O)c2c1c1c3cc(F)ccc3sc1c1c2c2cc(F)ccc2n1[C@@H]1O[C@H](CSc2nccc(O)n2)[C@@H](O)[C@H](O)[C@H]1O [Example 35] | 240 | – | – | <1.0 | – | > 7680
7 | O=C1NC(=O)c2c1c1c3cc(F)c(F)cc3sc1c1c2c2cc(F)c(F)cc2n1[C@@H]1O[C@H](CF)[C@@H](O)[C@H](O)[C@H]1O [Example 8, 13-[6-Dideoxy-6-fluoro-β-D-glucopyranosyl]-2,3,9,10-tetrafluoro-5H,13H-benzo[b]thienyl[2,3-a]pyrrolo[3,4-c]carbazole-5,7(6H)-dione] | 120 | – | – | 119.1 | – | 52
8 | O=C1NC(=O)c2c1c1c3cc(F)c(F)cc3[nH]c1c1c2c2cc(F)c(F)cc2n1[C@@H]1O[C@H](CO)C[C@H](O)[C@H]1O [Example 21] | 70 | – | – | 207.7 | – | 5

Source: US20030083271A1, “Topoisomerase I selective cytotoxic sugar derivatives of indolopyrrolocarbazoles” (priority 2001, published 2003)
